From paper PMC12867150, “A fungi-derived cyclic peptide enhances Th9-mediated antitumor immunity by targeting ZAP70 and SREBP1” (The Journal of Clinical Investigation, 2025) come the findings set out here.

Values joined by “and” are separate entries in the source; they are usually repeats but may differ in a detail not shown here. Identical values can stand only once.

Format in all cases: cell-based, mouse
One assay deals with TNF-α in Th9 cells. Kind of assay: Flow cytometry of TNF-α in Th9 cells in vitro (Figure 3F, 5I, 7C, S8M-N). To be noted: for TNF (flow cytometric quantification): Figure 5I, single agent, individual replicates, (n = 5); for TNF-α expression: MEK/ERK blockade, even with EpA, result in words. Here is the method: (§1) Naive CD4^+ T cells were isolated from the spleens of C57BL/6J or CD45.1^+ OT-II mice using the MojoSort Mouse CD4 Naive T Cell Isolation Kit (BioLegend, catalog 480040), following the manufacturer’s protocol. Purified cells were cultured in RPMI-1640 medium supplemented with 10% FBS, 1% penicillin-streptomycin, and 0.1% β-mercaptoethanol (Gibco, catalog 21985023).
(§2) T cell polarization was initiated under plate-bound anti-CD3 (2 μg/mL, clone 17A2, BioXCell, catalog BE0002) and soluble anti-CD28 (1 μg/mL, clone 37.51, BioXCell, catalog BE0015-1) stimulation, with the addition of cytokines and neutralizing antibodies specific to each subset. For Th9 cells, these included IL-4 (10 ng/mL, Peprotech, catalog 400-04), TGF-β (1 ng/mL, EPOTO Biotech, catalog HF-2021), anti–IL-12 (5 μg/mL, clone C17.8, BioXCell, catalog BE0051), and anti–IFN-γ (10 μg/mL, clone XMG1.2, BioXCell, catalog BE0055); for Th1 cells, these included IL-12 (10 ng/mL, GenScript, catalog Z03211-50) and anti–IL-4 (5 μg/mL, clone 11B11, BioXCell, catalog BE0045); for Th2 cells, these included IL-4 (50 ng/mL), anti–IFN-γ (20 μg /mL), anti–IL-12 (5 μg/mL), Th17 cells: IL-6 (20 ng/mL, EPOTO Biotech, catalog MF-1006), TGF-β (1 ng/mL), IL-1β (10 ng/mL, Peprotech, catalog AF-211-11B), anti–IFN-γ (10 μg/mL), anti–IL-12 (5 μg/mL), and anti–IL-4 (5 μg/mL); and for Tregs, these included TGF-β (3 ng/mL). After 3 days of initial culture, cells were either collected for downstream assays or continued in extended culture with refreshed cytokines to maintain lineage commitment.
(§3) Details regarding staining panels (human and mouse), reagents (including clones and catalog numbers), acquisition settings, compensation/controls, and analysis procedures are provided in Supplemental Methods.
(§4) BioLegend, Cat. No. 422301 or Mouse TruStain FcX™, BioLegend, Cat. No. 101319) for 10 minutes at 4°C. For surface marker detection, cells were stained with fluorochrome-conjugated monoclonal antibodies in 96-well V-bottom plates and incubated on ice for 30 minutes. After staining, cells were washed twice and resuspended in FACS buffer for analysis.
(§5) Prior to intracellular cytokine staining, cells were restimulated for 4 hours with PMA (Absin, Cat. No. abs9107), ionomycin (Sigma-Aldrich, Cat. No. I0634), and brefeldin A (MedChemExpress, Cat. No. HY-16592). For intracellular cytokine staining, cells were first surface-stained as described above, then fixed and permeabilized using the BD Cytofix/Cytoperm™ kit (BD Biosciences, Cat. No. 554714) according to the manufacturer ’s protocol. Intracellular proteins were stained with directly conjugated antibodies targeting IL-9, IL-17a, IL-4, IFN-γ, TNF-α, FOXP3, p-ZAP70, Perforin, and […]
(§6) Antibodies used for mouse samples included those against IL-9 (PE, clone RM9A4, Biolegend, Cat. No. 514104), IFN-γ (PE, clone XMG1.2, Biolegend, Cat. No.
(§7) Cat. No. 103138), CD4 (APC/Cy7, clone E-AB-F1353UJ, Elabscience, Cat. No.
(§8) AF18028), CD8α (PerCP/Cy5.5, clone E-AB-F1104UJ, Elabscience, Cat. No. […]
(§9) clone E-AB-F1187UH, Elabscience, Cat. No. AF19854), TNF-α (BV421, clone MP6-XT22, Biolegend, Cat. No. 506328), FOXP3 (PE, clone FJK-16s, eBioscience, Cat. No.
(§10) Perforin (APC, clone S16009A, Biolegend, Cat. No. 154303) and Granzyme B (APC, […]
(§11) clone QA16A02, Biolegend, Cat. No. 372203). […]
Background: A flow cytometer gives signals particle by particle.

Another assay relates to PD-1 on Th9 cells. The experiment in a line: Flow cytometry of PD-1 on Th9 cells in vitro (Figure 5K, 7E, S3D). The conditions noted are these: for PD1 (flow cytometric quantification): Figure 5K, single agent, individual replicates, (n = 5); for PD-1 expression: MEK/ERK blockade, even with EpA, result in words. Here is the method: as §1, §2, §3, §4, §5, §6, §7, §8, §9, §10, §11

Assay [1] has as its system Th9 cells. The experiment in a line: IL-9+ Th9 cells with MEK or ERK inhibition (Figure 5H). The conditions noted are these: for IL-9 (flow cytometric quantification): Figure 5H, single agent, individual replicates, (n = 5); for IL-9 production: trametinib 10 nM, temuterkib 100 nM, result in words. Here is the method: (A) Identification and ranking of EpA-interacting proteins by affinity pulldown and LC-MS/MS, ordered by in silico binding energy predictions. […] (E) Flow-cytometric analysis of phosphorylated ZAP70 in Th9 cells 10 minutes after TCR activation (mean ± SEM, n = 3). (F) Pathway enrichment analysis of RNA-seq data showing MAPK/ERK-related pathways in EpA-treated Th9 cells. (G) Immunoblot analysis of total and phosphorylated MEK1/2 and ERK1/2 in control and EpA-treated Th9 cells. (H–L) Functional consequences of MEK or ERK inhibition in EpA-treated Th9 cells. […] Data in H–K are shown as mean ± SEM (n = 5) and in L as mean ± SEM (n = 3). Statistical significance was determined using 1-way ANOVA followed by Tukey’s test (E, H–L). *P < 0.05, **P < 0.01, ***P < 0.001, ****P < 0.0001.
as §2
The following pharmacological inhibitors were used at the indicated final concentrations: trametinib (MEK1/2 inhibitor; Selleck, catalog S4484) at 10 nM; temuterkib (ERK1/2 inhibitor; MCE, catalog HY-101494) at 100 nM; and fatostatin hydrobromide (SREBP inhibitor; MCE, catalog HY-14452A) at 5 μM. Dead cells were detected using Fixable Viability Dye eFluor 780 (eBioscience, catalog 65-0865).

The subject of assay [2] is mitochondria of Th9 cells. The experiment in a line: Flow cytometry with MitoTracker Deep Red (Figure 4M, 5L, 7F, 7J). To be noted: Figure 5L, single agent, individual replicates, (n = 3). Here is the method: […] Cells were incubated with the respective dyes, washed, and subjected to flow cytometry or fluorescence microscopy analysis. For ultrastructural assessment, mitochondrial number and diameter were quantified from high-resolution transmission electron microscopy (TEM) images using ImageJ software.

The subject of a further assay is CD69 on Th9 cells. The experiment in a line: Flow cytometry of CD69 on Th9 cells in vitro (Figure 5J, 7D). To be noted: for CD69 (flow cytometric quantification): Figure 5J, single agent, individual replicates, (n = 5); for CD69 expression: MEK/ERK blockade, even with EpA, result in words. Here is the method: as §1, §2, §3, §4, §5, §6, §7, §8, §9, §10, §11

Assay [3] deals with Th9 cells. The experiment in a line: IL-9+ Th9 cells with oleic acid (S8I-J). To be noted: OA 50 μM. An excerpt:
LXR-α binding site ChREBP binding site USF1 binding site […] 2.1 1.8 2.1 […] 1.9 […] 20 20 0 […] + OA ✱✱✱✱ MIGR1 M Ctrl + OAEpA […] SREBP1 Ctrl SREBP1EpA ✱✱✱✱ ✱✱✱ 3 2 1 0 TNF-α MIGR1 SREBP1 […] SREBP1EpA Figure S8. EpA-associated modulation of lipid metabolism and its impact on Figure S8 Th9 cell function. (A-C) GSEA of RNA-seq data showing intracellular sterol transport (A), sterol transfer activity (B), and long-chain fatty acid transport (C) pathways in control and EpA-treated Th9 cells. […] (K and L) Flow-cytometric analysis of IL-9 expression in Th9 cells transduced with either control (MIGR1) or SREBP1- […]

Take `Cn1nccc1Nc1nccc(-c2cc3c(s2)C(C)(C)N(CCN2CCOCC2)C3=O)n1` [temuterkib, reference compound]: in the assay with TNF-α in Th9 cells (listed as ERKin), the “TNF (flow cytometric quantification)” value was 1577 and 1578 and 1574 and 1552 and 1651. Also, the TNF-α expression result in the assay with TNF-α in Th9 cells is “significantly reduced”. For the same molecule, the “PD1 (flow cytometric quantification)” value with PD-1 on Th9 cells (listed as ERKin) was 218 and 220 and 219 and 229 and 222. Moreover, in the assay with PD-1 on Th9 cells, the PD-1 expression entry was “significantly reduced”. In the assay on Th9 cells [1] (listed as ERKin), the “IL-9 (flow cytometric quantification)” value is 0.84 and 0.88 and 0.8 and 0.91 and 1. In addition, the IL-9 production entry in the assay with Th9 cells [1] is given as “almost completely abrogated IL-9 production”. Moreover, the “Mito tracker (flow cytometric quantification)” value in assay [2] (listed as ERKin) is 1115 (2×) and 1113. In addition, the “CD69 (flow cytometric quantification)” value in the assay with CD69 on Th9 cells (listed as ERKin) is 21.9 and 20.8 and 21.6 (2×) and 21.7. In addition, in the assay on CD69 on Th9 cells, the CD69 expression entry is “significantly reduced”.

Regarding `CCCCCCCC/C=C\CCCCCCCC(=O)O` [oleic acid], in the assay on Th9 cells [3] (result in words), the “Th9 polarization with oleic acid” value is recorded as “antagonizes Th9 polarization”. This molecule came in with an IL-9 gate number with Th9 cells [3] (representative flow plot, Figure S8I, EpA 10 μM) of 0.8.

Regarding `CC(=O)Nc1cccc(-n2c(=O)n(C3CC3)c(=O)c3c(Nc4ccc(I)cc4F)n(C)c(=O)c(C)c32)c1` [trametinib, reference compound], the “TNF (flow cytometric quantification)” value in the assay on TNF-α in Th9 cells (listed as MEKin) is 1461 and 1480 and 1452 (2×) and 1443. Also, the TNF-α expression result in the assay on TNF-α in Th9 cells is “significantly reduced”. In addition, the “PD1 (flow cytometric quantification)” value in the assay with PD-1 on Th9 cells (listed as MEKin) is 177 and 192 and 187 (2×) and 180. Besides, the PD-1 expression entry with PD-1 on Th9 cells is “significantly reduced”. The “IL-9 (flow cytometric quantification)” value with Th9 cells [1] (listed as MEKin) is 0.7 and 0.66 and 0.89 and 0.62 and 0.69. Also, the IL-9 production entry in the assay on Th9 cells [1] was “almost completely abrogated IL-9 production”. Further, in assay [2] (listed as MEKin), the “Mito tracker (flow cytometric quantification)” value is 942 and 929 and 920. For the same molecule, in the assay with CD69 on Th9 cells (listed as MEKin), the “CD69 (flow cytometric quantification)” value was 19.1 and 22.5 and 21.5 and 19.6 and 18.9. Moreover, the CD69 expression entry in the assay on CD69 on Th9 cells is listed as “significantly reduced”.
